Results as given in patent US9328138B2 (priority 2011, dated 2016).
pKi: −log10 of the molar value.

Assays:
[1] = biological target: T1, HCV genotype 1b (BK) NS3 modified enzyme with a R155K mutation (Hepatitis C virus genotype 1b, UniProt P26663, R1181K); experiment: HCV NS3 protease time-resolved fluorescence (TRF) assay, genotype 1b R155K; type: biochemical; details: Ki 1b R155K
T1 construct: HCV genotype 1b (BK) NS3 modified enzyme
Method: (§1) The HCV NS3 protease inhibitory activity of the present compounds may be tested using assays known in the art. One such assay is HCV NS3 protease time-resolved fluorescence (TRF) assay as described below and in International Patent Application Publication No. WO2006/102087. Other examples of such assays are described in e.g., International Patent Application Publication No. WO2005/046712. The assay is performed in a final volume of 100 μl in assay buffer containing 50 mM HEPES, pH 7.5, 150 mM NaCl, 15% glycerol, 0.15% Triton X-100, 10 mM DTT, and 0.1% PEG 8000. NS3 protease is pre-incubated with various concentrations of inhibitors in DMSO for 30 minutes. The reaction is initiated by adding the TRF peptide substrate (final concentration 100 nM). NS3 mediated hydrolysis of the substrate is quenched after 1 hour at room temperature with 100 μl of 500 mM MES, pH 5.5. Product fluorescence is detected using either a VICTOR V2 or FUSION fluorophotometer (Perkin Elmer Life and Analytical Sciences) with excitation at 340 nm and emission at 615 nm with a 400 μs delay. Testing concentrations of different enzyme forms are selected to result in a signal to background ratio (S/B) of 10-30. IC50 values are derived using a standard four-parameter fit to the data. K; values are derived from IC50 values using the following formula, IC50=Ki(1+[S]/Km), Eqn (1), where [S] is the concentration of substrate peptide in the reaction and KM is the Michaelis constant. See Gallinari et al., 1999, Biochem. 38:5620-32; Gallinari et al., 1998, J. Virol. 72:6758-69; Taliani et al., 1996, Anal. Biochem. 240:60-67.
(§2) The HCV NS3 protease inhibitory activity was measured using the protease time-resolved fluorescence (TRF) assay as described below and in International Patent Application Publication No. WO 2006/102087. The assay was performed with HCV genotype 1b (BK) NS3 modified enzyme with a R155K mutation and genotype 3a (3A-1).
(§3) The assay was performed in a final volume of 50 μl in assay buffer containing 50 mM HEPES, pH 7.5, 150 mM NaCl, 15% glycerol, 0.15% TRITON X-100, 10 mM DTT, and 0.1% PEG 8000. NS3 and NS4A protease is pre-incubated with various concentrations of inhibitors in DMSO for 10 minutes. The reaction was initiated by adding the TRF peptide substrate (final concentration 25 nM) and NS3 mediated hydrolysis of the substrate proceeds for 6 hours at room temperature. Product fluorescence is detected using an Envision plate reader (Perkin Elmer) with excitation at 340 nm and emission at 615 nm with a 400 μs delay. Testing concentrations of the enzymes were selected to result in a signal to background ratio (S/B) of 5-20. IC50 values are derived using a standard four-parameter fit to the data.
(§4) NS3 and NS4A protease is pre-incubated with various concentrations of inhibitors in DMSO for 30 minutes. The reaction is initiated by adding the TRF peptide substrate (final concentration 100 nM). NS3 mediated hydrolysis of the substrate is quenched after 1 hour at room temperature with 100 μl of 500 mM MES, pH 5.5. Product fluorescence is detected using either a VICTOR V2 or FUSION fluorophotometer (Perkin Elmer Life and Analytical Sciences) with excitation at 340 nm and emission at 615 nm with a 400 μs delay. Testing concentrations of the enzymes are selected to result in a signal to background ratio (S/B) of 8-30. IC50 values are derived using a standard four-parameter fit to the data. Ki values are derived from IC50 values using the following formula, IC50=Ki(1+[S][…]), Eqn (1), where [S] is the concentration of substrate peptide in the reaction and KM is the Michaelis constant. See Gallinari et al., 1999, Biochem. 38:5620-32; Gallinari et al., 1998, J. Virol. 72:6758-69; and Taliani et al., 1996, Anal. Biochem. 240:60-67. ND means not determined.

[2] = biological target: HCV NS3 protease genotype 3a (3A-1) (Hepatitis C virus genotype 3a, UniProt Q81258); experiment: HCV NS3 protease time-resolved fluorescence (TRF) assay, genotype 3a; type: biochemical; details: Ki 3a
Method: as §1, §2, §3, §4

[3] = genotype 1b (BK) NS3 R155K, single value

Compound | pKi ([1]; first of two values printed in the cell (not explained)) | pKi ([1]; second of two values printed in the cell (not explained)) | pKi [2] | pKi [1, 3]
C=C[C@@H]1C[C@]1(NC(=O)[C@@H]1C[C@@H]2CN1C(=O)[C@H](C1Cc3ccccc3C1)NC(=O)O[C@@H]1C[C@H]1CCCCCc1c(nc3ccccc3c1OCCCN(C)C)O2)C(=O)NS(=O)(=O)C1(C)CC1 [Example 233, (1aR,5S,8S,10R,22aR)-5-(2,3-dihydro-1H-inden-2-yl)-17-[3-(dimethylamino)propoxy]-N-[(1R,2S)-2-ethenyl-1-{[(1-methylcyclopropyl)sulfonyl]carbamoyl}cyclopropyl]-3,6-dioxo-1,1a,3,4,5,6,9,10,18,19,20,21,22,22a-tetradecahydro-8H-7,10-methanocyclopropa[18,19][1,10,3,6]dioxadiazacyclononadecino[11,12-b]quinoline-8-carboxamide] | 10.82 | 10.10 | 8.38 | –
CCOc1c2c(nc3ccccc13)O[C@@H]1C[C@@H](C(=O)N[C@]3(C(=O)NS(=O)(=O)C4CC4)C[C@H]3CC)N(C1)C(=O)[C@H](C1CCCC1)NC(=O)O[C@@H]1CCC[C@H]1CCCCC2 [Example 25, (3aR,7S,10S,12R,24aR)-7-cyclo pentyl-N-{(1R,2R)-1-[(cyclopropylsulfonyl)carbamoyl]-2-ethylcyclopropyl}-19-ethoxy-5,8-dioxo-1,2,3,3a,5,6,7,8,11,12,20,21,22,23,24,24a-hexadecahydro-10H-9,12-methanocyclopenta[18,19][1,10,3,6]dioxa diazacyclononadecino[11,12-b]quinoline-10-carboxamide] | – | – | 7.06 | 8.28
C=C[C@@H]1C[C@]1(NC(=O)[C@@H]1C[C@@H]2CN1C(=O)[C@H](C(C)(C)C)NC(=O)O[C@@H]1CCC[C@H]1CCCCCc1c(nc3ccccc3c1OCCN1CCOCC1)O2)C(=O)NS(=O)(=O)N1CCCCC1 [Example 110, (3aR,7S,10S,12R,24aR)-7-tert-butyl-N-{(1R,2S)-2-ethenyl-1-[(piperidin-1-ylsulfonyl)carbamoyl]cyclopropyl}-19-[2-(morpholin-4-yl)ethoxy]-5,8-dioxo-1,2,3,3a,5,6,7,8, 11,12,20,21,22,23,24,24a-hexadecahydro-10H-9,12-methanocyclopenta[18,19] [1,10,3,6]dioxadiaza-cyclononadecino[11,12-b] quinoline-10-carboxamide] | – | – | 6.31 | 7.85
C=C[C@@H]1C[C@]1(NC(=O)[C@@H]1C[C@@H]2CN1C(=O)[C@H](C1CCCCC1)NC(=O)O[C@@H]1C[C@H]1CCCCCc1c(nc3ccccc3c1OCCCN1CCC(S(C)(=O)=O)C1)O2)C(=O)NS(=O)(=O)C1(C)CC1 (stereo partly drawn) [Example 166, (1aR,5S,8S,10R,22aR)-5-cyclohexyl-N-[(1R,2S)-2-ethenyl-1-{[(1-methylcyclopropyl)sulfonyl]carbamoyl}cyclopropyl]-17-{3-[3-(methylsuflonyl)pyrrolidin-1-yl]propoxy}-3,6-dioxo-1,1a,3,4,5,9,10, 18,19,20,21,22,22a-tetradecahydro-8H-7,10-methanocyclopropa[18,19][1,10,3,6] dioxadiazacyclononadecino[11,12-b] quinoline-8-carboxamide] | – | – | 8.66 | 9.96
C=C[C@@H]1C[C@]1(NC(=O)[C@@H]1C[C@@H]2CN1C(=O)[C@H](C1CCCC1)NC(=O)O[C@@H]1CCC[C@H]1CC/C=C/Cc1c(nc3ccccc3c1OC)O2)C(=O)NS(=O)(=O)C1CC1 [Example 4, (3aR,7S,10S,12R,21E,24aS)-7-cyclo pentyl-N-{(1R,2S)-1-[(cyclopropylsulfonyl)carbamoyl]-2-ethenylcyclopropyl}-19-methoxy-5,8-dioxo-1,2,3,3a,5,6,7,8,11,12,20,23,24,24a-tetradeca hydro-10H-9,12-methanocyclopenta[18,19][1,10,3,6] dioxadiazacyclononadecino[11,12-b]quinoline-10-carboxamide] | – | – | 8.47 | 9.96
C=C[C@@H]1C[C@]1(NC(=O)[C@@H]1C[C@@H]2CN1C(=O)[C@H](C(C)(C)C)NC(=O)O[C@@H]1C[C@H]1CCCCCc1c(nc3ccccc3c1OC1CCN(CCOC)CC1)O2)C(=O)NS(=O)(=O)C1(C)CC1 [Example 225, (1aR,5S,8S,10R,22aR)-5-tert-butyl-N-[(1R,2S)-2-ethenyl-1-{[(1-methylcyclopropyl)sulfonyl]carbamoyl}cyclopropyl]-17-{[1-(2-methoxyethyl)piperidin-4-yl]oxy}-3,6-dioxo-1,1a,3,4,5,6,9,10,18,19,20,21,22,22a-tetradecahydro-8H-7,10-methanocyclopropa[18,19][1,10,3,6]dioxadiazacyclononadecino[11,12-b]quinoline-8-carboxamide] | – | – | 9.22 | 10.10
C=C[C@@H]1C[C@]1(NC(=O)[C@@H]1C[C@@H]2CN1C(=O)[C@H](C(C)(C)C)NC(=O)O[C@@H]1CCC[C@H]1CCCCCc1c(nc3ccccc3c1OCCN1CCOCC1)O2)C(=O)NS(=O)(=O)C1(C)CC1 [Example 105, (3aR,7S,10S,12R,24aR)-7-tert-butyl-N-[(1R,2S)-2-ethenyl-1-{[(1-methyl-cyclopropyl)sulfonyl]carbamoyl}cyclopropyl]-19-[2-(morpholin-4-yl)ethoxy]-5,8-dioxo-1,2,3,3a, 5,6,7,8,11,12,20,21, 22,23,24,24a-hexadeca hydro-10H-9,12-methanocyclopenta [18,19][1,10,3,6]dioxadiazacyclo nonadecino[11,12-b]quinoline-10-carboxamide] | – | – | 7.85 | 9.37
C=C[C@@H]1C[C@]1(NC(=O)[C@@H]1C[C@@H]2CN1C(=O)[C@H](C(C)(C)C)NC(=O)O[C@@H]1C[C@H]1CCCCCc1c(nc3ccccc3c1OCCCN(C)Cc1ncc[nH]1)O2)C(=O)NS(=O)(=O)C1(C)CC1 [Example 200, (1aR,5S,8S,10R,22aR)-5-tert-butyl-N-[(1R,2S)-2-ethenyl-1-{[(1-methylcyclopropyl)sulfonyl]carbamoyl}cylcopropyl]-17-{3-[(1H-imidazol-2-ylmethyl)(methyl)amino]propoxy}-3,6-dioxo-1,1a,3,4,5,6,9,10,18, 19,20,21,22,22a-tetradecahydro-8H-7,10-methanocyclopropa[18,19][1,10,3,6] dioxadiazacyclononadecino[11,12-b] quinoline-8-carboxamide] | – | – | 9.02 | 10.13
C=C[C@@H]1C[C@]1(NC(=O)[C@@H]1C[C@@H]2CN1C(=O)[C@H](C1CCCC1)NC(=O)O[C@@H]1CCC[C@H]1CC/C=C/Cc1c(nc3ccccc3c1OCCC1OCCO1)O2)C(=O)NS(=O)(=O)C1(C)CC1 [Example 50, (3aR,7S,10S,12R,21E,24aS)-7-cyclopentyl-19-[2-(1,3-dioxolan-2-yl)ethoxy]-N-[(1R,2S)-2-ethenyl-1-{[(1-methylcyclopropyl)sulfonyl]carbamoyl}cyclopropyl]-5,8-dioxo-1,2,3,3a, 5,6,7,8,11,12,20,23,24,24a-tetradeca hydro-10H-9,12-methanocyclopenta[18,19][1,10,3,6]dioxadiazacyclononadecino[11,12-b] quinoline-10-carboxamide] | – | – | 8.18 | 9.64
